Non-standard residues stand in square brackets, D forms with d. Residues, ends and D or L forms follow the SMILES beside them. 2Nal = N[C@@H](Cc1ccc2ccccc2c1)C(=O)O A value given as a limit tells only on which side of the number the result lay.

The target in this experiment is Bcl-2-like protein 1 (Homo sapiens, UniProt Q07817). Put plainly: Binding affinity to recombinant Bcl-XL expressed in Escherichia coli BL21 by fluorescence polarization assay.
Bcl-2-like protein 1, sequence (Q07817 whole entry): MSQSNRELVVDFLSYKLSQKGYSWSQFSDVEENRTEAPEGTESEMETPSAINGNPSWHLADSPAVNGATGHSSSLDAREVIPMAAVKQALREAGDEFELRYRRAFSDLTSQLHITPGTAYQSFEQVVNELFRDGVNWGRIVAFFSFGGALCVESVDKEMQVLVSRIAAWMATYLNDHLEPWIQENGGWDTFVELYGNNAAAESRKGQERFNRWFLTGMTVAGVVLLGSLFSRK
On to `CC[C@H](C)[C@H](NC(=O)[C@H](C)NC(=O)[C@H](CCc1ccccc1)NC(=O)[C@H](CCC(N)=O)NC(=O)[C@H](CCCNC(=N)N)NC(=O)CNC(=O)[C@@H](NC(=O)[C@H](CCC(N)=O)NC(=O)CN)C(C)C)C(=O)N[C@H](C(=O)NCC(=O)N[C@@H](CC(=O)O)C(=O)N[C@@H](CC(=O)O)C(=O)N[C@H](C(=O)N[C@@H](CC(N)=O)C(=O)N[C@@H](CCCNC(=N)N)C(=O)O)[C@@H](C)CC)[C@@H](C)CC`, for which the EC50 is 225 nM. With `CC[C@H](C)[C@H](NC(=O)[C@H](C)NC(=O)[C@H](CC(C)C)NC(=O)[C@H](CCC(N)=O)NC(=O)[C@H](CCCNC(=N)N)NC(=O)CNC(=O)[C@@H](NC(=O)[C@H](CCC(N)=O)NC(=O)CN)C(C)C)C(=O)N[C@H](C(=O)NCC(=O)N[C@@H](CC(=O)O)C(=O)N[C@@H](CC(=O)O)C(=O)N[C@@H](Cc1cnc[nH]1)C(=O)N[C@@H](CC(N)=O)C(=O)N[C@@H](CCCNC(=N)N)C(=O)O)[C@@H](C)CC`, the EC50 stood at 5120 nM. With `CC[C@H](C)[C@H](NC(=O)[C@H](C)NC(=O)[C@H](Cc1ccccc1)NC(=O)[C@H](CCC(N)=O)NC(=O)[C@H](CCCN=C(N)N)NC(=O)CNC(=O)[C@@H](NC(=O)[C@H](CCC(N)=O)NC(=O)CN)C(C)C)C(=O)N[C@H](C(=O)NCC(=O)N[C@@H](CC(=O)O)C(=O)N[C@@H](CC(=O)O)C(=O)N[C@H](C(=O)N[C@@H](CC(N)=O)C(=O)N[C@@H](CCCN=C(N)N)C(=O)O)[C@@H](C)CC)[C@@H](C)CC` the figure was 405 nM. In the case of `CC[C@H](C)[C@H](NC(=O)[C@H](C)NC(=O)[C@H](C)NC(=O)[C@H](CCC(N)=O)NC(=O)[C@H](CCCN=C(N)N)NC(=O)CNC(=O)[C@@H](NC(=O)[C@H](CCC(N)=O)NC(=O)CN)C(C)C)C(=O)N[C@H](C(=O)NCC(=O)N[C@@H](CC(=O)O)C(=O)N[C@@H](CC(=O)O)C(=O)N[C@H](C(=O)N[C@@H](CC(N)=O)C(=O)N[C@@H](CCCN=C(N)N)C(=O)O)[C@@H](C)CC)[C@@H](C)CC`, the EC50 is 270000 nM. Under `CC[C@H](C)[C@H](NC(=O)[C@H](C)NC(=O)[C@H](CC(C)C)NC(=O)[C@H](CCC(N)=O)NC(=O)[C@H](CCCNC(=N)N)NC(=O)CNC(=O)[C@@H](NC(=O)[C@H](CCC(N)=O)NC(=O)CN)C(C)C)C(=O)N[C@H](C(=O)NCC(=O)N[C@@H](CC(=O)O)C(=O)N[C@@H](CC(=O)O)C(=O)N[C@@H](Cc1cccc(Cl)c1)C(=O)N[C@@H](CC(N)=O)C(=O)N[C@@H](CCCNC(=N)N)C(=O)O)[C@@H](C)CC` stands 56 nM; under `CC[C@H](C)[C@H](NC(=O)[C@H](C)NC(=O)[C@H](CC(C)C)NC(=O)[C@H](CCC(N)=O)NC(=O)[C@H](CCCNC(=N)N)NC(=O)CNC(=O)[C@@H](NC(=O)[C@H](CCC(N)=O)NC(=O)CN)C(C)C)C(=O)N[C@H](C(=O)NCC(=O)N[C@@H](CC(=O)O)C(=O)N[C@@H](CC(=O)O)C(=O)N[C@@H](CCC(=O)O)C(=O)N[C@@H](CC(N)=O)C(=O)N[C@@H](CCCNC(=N)N)C(=O)O)[C@@H](C)CC`, greater than 10000 nM; under `CC[C@H](C)[C@H](NC(=O)[C@H](C)NC(=O)[C@H](CC(C)C)NC(=O)[C@H](CCC(N)=O)NC(=O)[C@H](CCCN=C(N)N)NC(=O)CNC(=O)[C@@H](NC(=O)[C@H](CCC(N)=O)NC(=O)CN)C(C)C)C(=O)N[C@@H](Cc1ccc2ccccc2c1)C(=O)NCC(=O)N[C@@H](CC(=O)O)C(=O)N[C@@H](CC(=O)O)C(=O)N[C@H](C(=O)N[C@@H](CC(N)=O)C(=O)N[C@@H](CCCN=C(N)N)C(=O)O)[C@@H](C)CC`, 1300 nM. With `CC[C@H](C)[C@H](NC(=O)[C@H](C)NC(=O)[C@H](CC(C)C)NC(=O)[C@H](CCC(N)=O)NC(=O)[C@H](CCCN=C(N)N)NC(=O)CNC(=O)[C@H](Cc1ccccc1)NC(=O)[C@H](CCC(N)=O)NC(=O)CN)C(=O)N[C@H](C(=O)NCC(=O)N[C@@H](CC(=O)O)C(=O)N[C@@H](CC(=O)O)C(=O)N[C@H](C(=O)N[C@@H](CC(N)=O)C(=O)N[C@@H](CCCN=C(N)N)C(=O)O)[C@@H](C)CC)[C@@H](C)CC` the figure was 304 nM; with `CC[C@H](C)[C@H](NC(=O)[C@H](C)NC(=O)[C@H](CC(C)C)NC(=O)[C@H](CCC(N)=O)NC(=O)[C@H](CCCNC(=N)N)NC(=O)CNC(=O)[C@@H](NC(=O)[C@H](CCC(N)=O)NC(=O)CN)C(C)C)C(=O)N[C@@H](Cc1ccc([N+](=O)[O-])cc1)C(=O)NCC(=O)N[C@@H](CC(=O)O)C(=O)N[C@@H](CC(=O)O)C(=O)N[C@H](C(=O)N[C@@H](CC(N)=O)C(=O)N[C@@H](CCCNC(=N)N)C(=O)O)[C@@H](C)CC`, 1470 nM; with `CC[C@H](C)[C@H](NC(=O)[C@H](C)NC(=O)[C@H](Cc1cccc(Cl)c1)NC(=O)[C@H](CCC(N)=O)NC(=O)[C@H](CCCN=C(N)N)NC(=O)CNC(=O)[C@@H](NC(=O)[C@H](CCC(N)=O)NC(=O)CN)C(C)C)C(=O)N[C@H](C(=O)NCC(=O)N[C@@H](CC(=O)O)C(=O)N[C@@H](CC(=O)O)C(=O)N[C@H](C(=O)N[C@@H](CC(N)=O)C(=O)N[C@@H](CCCN=C(N)N)C(=O)O)[C@@H](C)CC)[C@@H](C)CC`, 359 nM.

As for `CCCC[C@H](NC(=O)[C@H](CC(=O)O)NC(=O)[C@H](CC(=O)O)NC(=O)CNC(=O)[C@@H](NC(=O)[C@@H](NC(=O)[C@H](C)NC(=O)[C@H](CC(C)C)NC(=O)[C@H](CCC(N)=O)NC(=O)[C@H](CCCN=C(N)N)NC(=O)CNC(=O)[C@@H](NC(=O)[C@H](CCC(N)=O)NC(=O)CN)C(C)C)[C@@H](C)CC)[C@@H](C)CC)C(=O)N[C@@H](CC(N)=O)C(=O)N[C@@H](CCCN=C(N)N)C(=O)O`, the half-maximal effective concentration (EC50) stood at 118 nM.

With `CC[C@H](C)[C@H](NC(=O)[C@H](C)NC(=O)[C@H](Cc1ccc2ccccc2c1)NC(=O)[C@H](CCC(N)=O)NC(=O)[C@H](CCCNC(=N)N)NC(=O)CNC(=O)[C@@H](NC(=O)[C@H](CCC(N)=O)NC(=O)CN)C(C)C)C(=O)N[C@H](C(=O)NCC(=O)N[C@@H](CC(=O)O)C(=O)N[C@@H](CC(=O)O)C(=O)N[C@@H](Cc1ccccc1)C(=O)N[C@@H](CC(N)=O)C(=O)N[C@@H](CCCNC(=N)N)C(=O)O)[C@@H](C)CC` (H-GQVGRQ[2Nal]AIIGDDFNR-OH), the EC50 amounted to 54 nM. Take `CC[C@H](C)[C@H](NC(=O)[C@H](C)NC(=O)[C@H](CC(C)C)NC(=O)[C@H](CCC(N)=O)NC(=O)[C@H](CCCN=C(N)N)NC(=O)CNC(=O)[C@@H](NC(=O)[C@H](CCC(N)=O)NC(=O)CN)C(C)C)C(=O)N[C@H](C(=O)NCC(=O)N[C@@H](CC(=O)O)C(=O)N[C@@H](CC(=O)O)C(=O)N[C@@H](Cc1cccc2ccccc12)C(=O)N[C@@H](CC(N)=O)C(=O)N[C@@H](CCCN=C(N)N)C(=O)O)[C@@H](C)CC`: the EC50 amounted to 77 nM.

For the compound `CC[C@H](C)[C@H](NC(=O)[C@H](C)NC(=O)[C@H](CC(C)C)NC(=O)[C@H](CCC(N)=O)NC(=O)[C@H](CCCN=C(N)N)NC(=O)CNC(=O)[C@@H](NC(=O)[C@H](CCC(N)=O)NC(=O)CN)C(C)C)C(=O)N[C@H](C(=O)NCC(=O)N[C@@H](CC(=O)O)C(=O)N[C@@H](CC(=O)O)C(=O)N[C@@H](Cc1ccc(O)cc1)C(=O)N[C@@H](CC(N)=O)C(=O)N[C@@H](CCCN=C(N)N)C(=O)O)[C@@H](C)CC`, the EC50 came to 159 nM. For `CC[C@H](C)[C@H](NC(=O)[C@H](C)NC(=O)[C@H](CC(C)C)NC(=O)[C@H](CCC(N)=O)NC(=O)[C@H](CCCN=C(N)N)NC(=O)CNC(=O)[C@@H](NC(=O)[C@H](CCC(N)=O)NC(=O)CN)C(C)C)C(=O)N[C@H](C(=O)NCC(=O)N[C@@H](CC(=O)O)C(=O)N[C@@H](CC(=O)O)C(=O)N[C@@H](Cc1ccc(I)cc1)C(=O)N[C@@H](CC(N)=O)C(=O)N[C@@H](CCCN=C(N)N)C(=O)O)[C@@H](C)CC`, the EC50 was 45 nM. `CC[C@H](C)[C@H](NC(=O)[C@H](C)NC(=O)[C@H](Cc1cccc2ccccc12)NC(=O)[C@H](CCC(N)=O)NC(=O)[C@H](CCCNC(=N)N)NC(=O)CNC(=O)[C@@H](NC(=O)[C@H](CCC(N)=O)NC(=O)CN)C(C)C)C(=O)N[C@H](C(=O)NCC(=O)N[C@@H](CC(=O)O)C(=O)N[C@@H](CC(=O)O)C(=O)N[C@H](C(=O)N[C@@H](CC(N)=O)C(=O)N[C@@H](CCCNC(=N)N)C(=O)O)[C@@H](C)CC)[C@@H](C)CC`: the half-maximal effective concentration (EC50) was greater than 10000 nM. Under `CC[C@H](C)[C@H](NC(=O)[C@H](C)NC(=O)[C@H](CC1CCCCC1)NC(=O)[C@H](CCC(N)=O)NC(=O)[C@H](CCCNC(=N)N)NC(=O)CNC(=O)[C@@H](NC(=O)[C@H](CCC(N)=O)NC(=O)CN)C(C)C)C(=O)N[C@H](C(=O)NCC(=O)N[C@@H](CC(=O)O)C(=O)N[C@@H](CC(=O)O)C(=O)N[C@H](C(=O)N[C@@H](CC(N)=O)C(=O)N[C@@H](CCCNC(=N)N)C(=O)O)[C@@H](C)CC)[C@@H](C)CC` stands 219 nM. With `CC[C@H](C)[C@H](NC(=O)[C@H](C)NC(=O)[C@H](CC(C)C)NC(=O)[C@H](CCC(N)=O)NC(=O)[C@H](CCCNC(=N)N)NC(=O)CNC(=O)[C@H](C)NC(=O)[C@H](CCC(N)=O)NC(=O)CN)C(=O)N[C@H](C(=O)NCC(=O)N[C@@H](CC(=O)O)C(=O)N[C@@H](CC(=O)O)C(=O)N[C@H](C(=O)N[C@@H](CC(N)=O)C(=O)N[C@@H](CCCNC(=N)N)C(=O)O)[C@@H](C)CC)[C@@H](C)CC`, the EC50 stood at 15000 nM. Consider `CC[C@H](C)[C@H](NC(=O)[C@H](C)NC(=O)[C@H](CC(C)C)NC(=O)[C@H](CCC(N)=O)NC(=O)[C@H](CCCN=C(N)N)NC(=O)CNC(=O)[C@@H](NC(=O)[C@H](CCC(N)=O)NC(=O)CN)C(C)C)C(=O)N[C@H](C(=O)NCC(=O)N[C@@H](CC(=O)O)C(=O)N[C@@H](CC(=O)O)C(=O)N[C@@H](Cc1ccc2ccccc2c1)C(=O)N[C@@H](CC(N)=O)C(=O)N[C@@H](CCCN=C(N)N)C(=O)O)[C@@H](C)CC`, for which the EC50 came to 125 nM. Under `CC[C@H](C)[C@H](NC(=O)[C@H](C)NC(=O)[C@H](CC(C)C)NC(=O)[C@H](CCC(N)=O)NC(=O)[C@H](CCCNC(=N)N)NC(=O)CNC(=O)[C@@H](NC(=O)[C@H](CCC(N)=O)NC(=O)CN)C(C)C)C(=O)N[C@H](C(=O)NCC(=O)N[C@@H](CC(=O)O)C(=O)N[C@@H](CC(=O)O)C(=O)N[C@@H](CC1CCCCC1)C(=O)N[C@@H](CC(N)=O)C(=O)N[C@@H](CCCNC(=N)N)C(=O)O)[C@@H](C)CC` stands 58 nM.

(Values after ChEMBL document CHEMBL1141655, “Structure-activity relationships of Bak derived peptides: affinity and specificity modulations by amino acid replacement” (Eur J Med Chem, 2008).)
